Data reported in patent US8173378B2, “Methods of using an alpha-1-adrenergic receptor having altered ligand affinity” (Pharmacome LLC, priority 2007, dated 2012).

Assays:
[1] = biological target: T1, α1L-adrenergic receptor (α1A-adrenergic receptor / CRELD1α complex) in α1L cells (Homo sapiens, UniProt P35348); experiment: Whole-cell [3H]-silodosin binding in α1L cells (CHO-K1 coexpressing ADRA1A and CRELD1α); conditions: for sensitivity of receptors in α1L cells (in words): whole-cell competition binding
T1 construct: the coding region of the ADRA1A gene was subcloned into the EcoRI restriction enzyme site of the multicloning site A of the pIRES; expressed in transfected cells
T1 sequence (P35348 1-466): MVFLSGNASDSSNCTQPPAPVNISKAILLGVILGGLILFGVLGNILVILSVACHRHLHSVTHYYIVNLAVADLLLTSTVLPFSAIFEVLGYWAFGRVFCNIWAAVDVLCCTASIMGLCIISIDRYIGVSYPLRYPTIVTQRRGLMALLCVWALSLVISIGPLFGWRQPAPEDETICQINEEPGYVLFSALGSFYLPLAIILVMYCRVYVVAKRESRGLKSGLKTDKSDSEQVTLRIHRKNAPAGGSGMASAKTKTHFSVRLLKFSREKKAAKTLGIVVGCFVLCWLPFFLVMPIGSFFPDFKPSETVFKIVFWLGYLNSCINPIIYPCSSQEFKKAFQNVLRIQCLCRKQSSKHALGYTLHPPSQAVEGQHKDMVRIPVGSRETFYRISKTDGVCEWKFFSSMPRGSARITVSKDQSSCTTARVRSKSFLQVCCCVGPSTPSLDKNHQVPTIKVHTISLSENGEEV
T1 sequence (Q96HD1 30-420 partner): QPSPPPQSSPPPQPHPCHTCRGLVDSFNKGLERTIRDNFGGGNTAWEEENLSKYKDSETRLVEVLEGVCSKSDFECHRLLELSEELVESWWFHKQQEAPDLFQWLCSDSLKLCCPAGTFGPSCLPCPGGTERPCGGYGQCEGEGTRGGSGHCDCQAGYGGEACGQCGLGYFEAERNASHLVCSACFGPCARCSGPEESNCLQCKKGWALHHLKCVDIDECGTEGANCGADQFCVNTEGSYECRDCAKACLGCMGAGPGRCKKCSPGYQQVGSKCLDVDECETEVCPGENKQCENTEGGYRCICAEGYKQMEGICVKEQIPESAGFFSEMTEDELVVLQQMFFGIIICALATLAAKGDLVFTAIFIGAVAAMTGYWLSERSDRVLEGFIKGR
Protocol: (§1) The vector was amplified/purified in a conventional method, and then transfected into CHO-K1 cells, which are cells of Chinese Hamster ovarian origin, with Lipofectamine 2000 (Invitrogen Corporation) according to the manufacturer's protocol. Two days after the transfection, 1200 μg/ml of the antibiotic Geneticin (G418) were added to the DMEM culture medium. […] The G418-resistant cells were diluted, suspended, and injected dividedly into a 96-well plate so that an average of 0.5 cells was put in per well, and a single colony was chosen. This operation was repeated three times, whereby a stable clone (au cells) having coexpressed the ADRA1A gene and the CREDL1α gene was produced. Further, as control groups, the cells (α1A cells) having stably expressed only the ADRA1A gene and the cells (CREDL1α cells) having stably expressed only the CREDL1α gene were produced.
The stable clone was studied by a pharmacological binding method with [^3H]-silodosin, which is a radioligand. An experiment was conducted using a whole-cell binding method. That is, cells were scattered two to three days before the experiment so that they are semi-confluent, washed twice with ice-cold PBS, and then scraped by a scraper. The cells thus collected were suspended again in a Krebs-HEPES solution, and then incubated at 4° C. for four hours together with [^3H]-silodosin and another drug as needed. Thereafter, the cells were filtered/washed by a Whatmann GC/F filter pretreated with polyethylene imine, and the radioactivity was measured by a liquid scintillation counter. The non-specific binding was evaluated as binding in the presence of 30 μM phenotolamine.
The binding of [^3H]-silodosin of various concentrations (30 to 1000 pM) to the α1L cells was examined (FIG. 1).
Silodosin is known to bind selectively to the α1A- and α1L-subtypes with a high affinity. […] The α1A cells were used as control cell line. [^3H]-silodosin is known as a selective antagonist of α1A- and α1L-subtypes both.

α1B-adrenergic receptor = biological target: T2, α1B-adrenergic receptor (Homo sapiens, UniProt P35368); conditions: α1B subtype; cited from earlier work
T2 sequence (P35368 1-520): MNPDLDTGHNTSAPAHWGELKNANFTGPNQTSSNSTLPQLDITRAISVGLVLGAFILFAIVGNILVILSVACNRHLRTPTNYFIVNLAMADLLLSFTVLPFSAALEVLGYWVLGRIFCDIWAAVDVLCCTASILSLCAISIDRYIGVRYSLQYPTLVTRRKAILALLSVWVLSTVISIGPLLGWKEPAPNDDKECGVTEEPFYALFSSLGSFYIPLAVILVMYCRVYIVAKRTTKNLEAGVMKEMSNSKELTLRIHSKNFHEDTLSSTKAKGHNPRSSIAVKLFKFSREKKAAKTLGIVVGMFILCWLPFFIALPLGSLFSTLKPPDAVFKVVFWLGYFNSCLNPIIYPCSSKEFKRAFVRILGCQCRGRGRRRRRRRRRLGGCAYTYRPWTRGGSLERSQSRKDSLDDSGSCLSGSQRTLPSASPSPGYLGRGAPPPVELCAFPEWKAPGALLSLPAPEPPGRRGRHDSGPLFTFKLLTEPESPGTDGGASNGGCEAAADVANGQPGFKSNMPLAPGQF

[2] = biological target: T3, α1A-adrenergic receptor in α1A cells (Homo sapiens, UniProt P35348); experiment: Whole-cell [3H]-silodosin binding in α1A cells (CHO-K1 expressing only ADRA1A)
T3 construct: the coding region of the ADRA1A gene was subcloned into the EcoRI restriction enzyme site of the multicloning site A of the pIRES; expressed in transfected cells
T3 sequence (P35348 1-466): T1 sequence (P35348 1-466)
Protocol: as §1
The stable clone was studied by a pharmacological binding method with [^3H]-silodosin, which is a radioligand. An experiment was conducted using a whole-cell binding method. […] Thereafter, the cells were filtered/washed by a Whatmann GC/F filter pretreated with polyethylene imine, and the radioactivity was measured by a liquid scintillation counter. The non-specific binding was evaluated as binding in the presence of 30 μM phenotolamine. […]

[3] = biological target: T4, α1L-adrenergic receptors in human prostate tissue segments (Homo sapiens, UniProt P35348); experiment: [3H]-silodosin binding in human prostate tissue segments
T4 construct: from tissue; host or cells: human prostate tissue segments
T4 sequence (P35348 1-466): T1 sequence (P35348 1-466)

α1A-adrenergic receptor = biological target: T5, α1A-adrenergic receptor (Homo sapiens, UniProt P35348); conditions: α1A subtype; cited from earlier work
T5 sequence (P35348 1-466): T1 sequence (P35348 1-466)

α1L-adrenergic receptor = conditions: α1L subtype; cited from earlier work
α1D-adrenergic receptor = biological target: T6, α1D-adrenergic receptor (Homo sapiens, UniProt P25100); conditions: α1D subtype; cited from earlier work
T6 sequence (P25100 1-572): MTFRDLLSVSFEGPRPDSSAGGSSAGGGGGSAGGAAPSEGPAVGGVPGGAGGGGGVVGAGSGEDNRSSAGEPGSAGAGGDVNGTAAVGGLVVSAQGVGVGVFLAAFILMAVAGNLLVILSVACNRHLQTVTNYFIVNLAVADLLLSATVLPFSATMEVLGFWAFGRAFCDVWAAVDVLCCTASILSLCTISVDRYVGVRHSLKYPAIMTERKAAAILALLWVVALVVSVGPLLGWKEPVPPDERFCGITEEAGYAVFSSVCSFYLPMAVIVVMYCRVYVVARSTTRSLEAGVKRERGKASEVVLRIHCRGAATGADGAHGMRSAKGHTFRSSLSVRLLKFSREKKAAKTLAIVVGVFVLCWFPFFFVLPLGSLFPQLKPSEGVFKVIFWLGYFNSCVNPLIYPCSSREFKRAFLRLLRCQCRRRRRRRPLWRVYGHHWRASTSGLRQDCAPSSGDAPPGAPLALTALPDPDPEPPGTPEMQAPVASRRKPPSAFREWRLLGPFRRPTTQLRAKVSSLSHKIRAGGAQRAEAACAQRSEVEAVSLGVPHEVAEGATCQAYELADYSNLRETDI

| Compound | sensitivity of receptors in α1L cells (in words) ([1]; α1L cells) | Affinity (pKb) (α1B-adrenergic receptor) | Ki [1] [nM] | Ki [2] [nM] | Ki [3] [nM] | Affinity (pKb) (α1A-adrenergic receptor) | Affinity (pKb) (α1L-adrenergic receptor) | Affinity (pKb) (α1D-adrenergic receptor) | maximum binding amount (Bmax) ([1]; α1L cells, saturation binding, 30 to 1000 pM) [fmol/mg protein] | Kd ([1]; α1L cells, saturation binding, whole-cell method) [nM] | Kd ([2]; α1A cells, whole-cell method, read-out: pKD (dissociation equilibrium constant from saturation binding curve) (converted)) [nM] | Kd ([3]; human prostate tissue segments, read-out: pKD (dissociation equilibrium constant from saturation binding curve) (converted)) [nM] |
| --- | --- | --- | --- | --- | --- | --- | --- | --- | --- | --- | --- | --- |
| COc1ccccc1N1CCN(CCN2C(=O)CC3(CCCC3)CC2=O)CC1.Cl.Cl [BMY 7378, 8-[2-[4-(2-methoxyphenyl)-1-piperazinyl]ethyl]8-azaspiro[4,5]decane7,9-dione dihydrochloride] | only low sensitivity | 7.4 |  |  |  |  |  |  |  |  |  |  |
| CC(C)(Cc1c[nH]c2ccc(Cl)cc12)NCCOc1ccccc1OCC1CC1.Cl [RS-17053, N-[2-(2-cyclopropylmethoxyphenoxy)ethyl]-5-chloro-α,α-dimethyl-1H-indole-3-ethanamine hydrochloride] | low in sensitivity | 7.8 | > 1000 | 1.58 | 251 | 9.1-8.4 | 6.3 | 7.8 |  |  |  |  |
| C[C@H](Cc1cc2c(c(C(N)=O)c1)N(CCCO)CC2)NCCOc1ccccc1OCC(F)(F)F [[^3H]-silodosin] |  |  |  |  |  |  |  |  | 134 | 0.843 | 0.2 | 0.316 |
| C[C@H](Cc1cc2c(c(C(N)=O)c1)N(CCCO)CC2)NCCOc1ccccc1OCC(F)(F)F [silodosin] |  | 8.1 |  |  |  | 10.7-9.5 | 10.7-9.5 | 8.6 |  |  |  |  |
| CCOc1ccccc1OCCN[C@H](C)Cc1ccc(OC)c(S(N)(=O)=O)c1 [tamsulosin] | high sensitivity | 9.3 |  |  |  |  |  | 9.9 |  |  |  |  |
